Measured values: patent US9757477B2, “Imaging brown adipose tissue with curcumin derivatives” (The General Hospital Corporation, priority 2013, dated 2017)

Tested on: interscapular BAT
Test: PET imaging with 18F-labeled curcumin analogue
Type: in vivo, mice
Details: 100-180 μCi tail vein
Method: PET imaging was conducted with a microPET P4 system (Concorde Microsystems Incorporated, Knoxville, Tenn., USA). The imaging parameters of this system are in-plane and axial resolution of 1.2 mm full width at half maximal count. Prior to PET imaging, mice were anesthetized with isoflurane/O2, and then fixed to the imaging table with a custom-fabricated mold. Injection catheter was placed in tail vein for administration of the radiotracer. Subsequently, CRANAD-5F^18 (100-180 μCi) was injected into the tail vein and volumetric dynamic data were acquired in list-mode format for 120 min. Imaging data were corrected for uniformity, attenuation, decay, and acquisition time. PET images were reconstructed using filtered back projection with a Ramp filter (cutoff value of 0.5). The software, ASIPro 6.0, was provided by the microPET manufacturer.

## CN(C)c1ccc(C=CC(O)=CC(=O)C=Cc2ccc(N(C)CC[18F])cc2)cc1 [CRANAD-5F]
  in vivo PET imaging of BAT: clearly highlighted BAT at the interscapular site
